Tests used:
Assay type in all cases: cell-based
[1] = tested on: K562 (human chronic myelogenous leukaemia); experiment: MTT cytotoxicity assay, leukemic cell line K562; details: Homo sapiens, K562, 72 h, three days
Text: Cytotoxicity of the compounds is the major property determining their antileukemic efficacy in vivo. One of the parameters used, as the basis for cytotoxicity assays, is the metabolic activity of viable cells. For example, a microtiter assay, which uses (3-(4,5-dimethylthiazol-2-yl)-2,5-diphenyltetrazolium bromide (MTT), is widely used to quantitate cell proliferation and cytotoxicity. This assay is widely used in drug screening programs and in chemosensitivity testing. Because only metabolically active living cells reduce MTT to correspond purple formazan dye, these assays detect viable cells exclusively. The quantity of reduced MTT corresponds to the number of vital cells in the culture.
(§1) The compounds were assayed using the following leukemic cell lines: K562 (human chronic myelogenous leukaemia), HL60 (human promyelocytic leukaemia), CEM (human lymphoblastoid leukaemia), THP1 (human monocytic cell line), MV4; 11 (acute myelocytic leukemia). All cell lines were grown in RPMI medium supplemented with fetal bovine serum and L-glutamine and maintained at 37° C. in a humidified atmosphere with 5% CO2. For cytotoxicity assays, 2000-5000 cells were seeded into each well of 96 well plate, allowed to stabilize for at least 8 h and then tested compounds were added at various concentrations ranging from 100 to 0.01 μM in triplicates. After three days, MTT solution (5 mg/ml; Sigma, St. Louis, USA) was added to cells and medium was replaced with DMSO after five hours. The absorbance was measured at 620 nm by employing a microplate reader. MTT assays were repeated 3 times for each drug application and untreated cells were used as reference.

[2] = tested on: PANC-1 (pancreatic carcinoma); experiment: MTT cytotoxicity assay, solid cancer cell line PANC-1; details: Homo sapiens, PANC-1, 72 h, three days
Description: as §1, with “following” for “following leukemic”, “G361 (malignant melanoma), MCF7 (breast adenocarcinoma), PLC/PRF/5 (liver hepatoma), PANC-1 (pancreatic carcinoma) and HCT116 (colon carcinoma).” for “K562 (human chronic myelogenous leukaemia), HL60 (human promyelocytic leukaemia), CEM (human lymphoblastoid leukaemia), THP1 (human monocytic cell line), MV4; 11 (acute myelocytic leukemia).”, “DMEM” for “RPMI”, “4000-10000” for “2000-5000”, “of a” for “of”, “16” for “8”

PARP-1 = experiment: Immunoblotting of apoptotic markers in HCT116 cells: PARP-1; details: 24 hours, FIG. 4
Description: Effect of novel compounds on apoptosis was confirmed by immunoblotting analysis of selected apoptotic proteins. For immunoblotting, cell were harvested, washed three times with ice-cold PBS and lysed in a buffer (50 mM Tris, pH 7.4, 250 mM NaCl, 5 mM EDTA, 50 mM NaF, 1 mM Na3VO4, 1% Nonidet P40) containing mixture of protease and phosphatase inhibitors (Sigma-Aldrich). 20 μg of total proteins were separated by SDS-polyacrylamide gel electrophoresis (SDS-PAGE) and transferred onto nitrocellulose membranes. Membranes were blocked in 5% milk and 0.1% Tween 20 in PBS and probed overnight with specific antibodies. Specific antibodies were purchased from SigmaAldrich (anti a-tubulin, clone DM1A), Santa Cruz Biotechnology (anti-Mcl-1, clone S-19; anti-PARP, clone F-2; anti-Mdm-2, clone SMP14; anti-Bcl-2), DAKO Cytomation Cell Signaling (anti-PUMA) or were a generous gift from Dr. B. Vojtesek (anti-p53, clone DO-1). All primary antibodies were diluted in PBS containing 5% powdered milk; 0.1% Tween 20. Peroxidase conjugated rabbit anti-mouse immunoglobulin or porcine anti-rabbit immunoglobulin antisera (DAKO) were used as the secondary antibodies and visualised with ECL reagents (GE-Healthcare Life Sciences).

CC(C)c1[nH]nc2c(NCc3ccc(-c4ccccn4)cc3)nc(NCC(O)CN)nc12 (stereo not drawn) [Compound 45]
IC50 [1]: 0.7 µM | IC50 [2]: 0.32 µM | PARP-1 cleavage (immunoblot) (PARP-1): appearance of the caspase-3-cleaved PARP-1 fragment at 89 kDa

Reference: patent US9957273B2, “5-substituted 7- [4-(2-pyridyl)phenylmethylamino] -3-isopropylpyrazolo4,3-D]pyrimidine derivatives, use thereof as medicaments, and pharmaceutical compositions” (USTAV EXPERIMENTALNI BOTANIKY AV CR, V.V.I., priority 2015, dated 2018)
